The source made the active and inactive calls.
Columns and labels:
[1] = target: Sodium channel protein type 2 subunit alpha (Homo sapiens, UniProt Q99250); assay: Binding affinity to Nav 1.2 (unknown origin)
[2] = tested on: Mus musculus; assay: Anticonvulsant activity in pentylenetetrazole-induced seizure Swiss Mus musculus (mouse) model assessed as increase in tonic seizure threshold at 40 mg/kg, ip measured after 30 min (reference value: 59.58 +/-1.01 mg/kg); format: functional; details: route intraperitoneal
[3] = tested on: Mus musculus; assay: Anticonvulsant activity in pentylenetetrazole-induced seizure Swiss Mus musculus (mouse) model assessed as increase in clonic seizure threshold at 40 mg/kg, ip measured after 30 min (reference value: 38.9 +/-1.01 mg/kg); format: functional; details: route intraperitoneal
[4] = tested on: Mus musculus; assay: Anticonvulsant activity in pentylenetetrazole-induced seizure Swiss Mus musculus (mouse) model assessed as increase in clonic seizure threshold at 10 to 20 mg/kg, ip measured after 30 min; format: functional, organism-based

Sodium channel protein type 2 subunit alpha, sequence (Q99250 whole entry): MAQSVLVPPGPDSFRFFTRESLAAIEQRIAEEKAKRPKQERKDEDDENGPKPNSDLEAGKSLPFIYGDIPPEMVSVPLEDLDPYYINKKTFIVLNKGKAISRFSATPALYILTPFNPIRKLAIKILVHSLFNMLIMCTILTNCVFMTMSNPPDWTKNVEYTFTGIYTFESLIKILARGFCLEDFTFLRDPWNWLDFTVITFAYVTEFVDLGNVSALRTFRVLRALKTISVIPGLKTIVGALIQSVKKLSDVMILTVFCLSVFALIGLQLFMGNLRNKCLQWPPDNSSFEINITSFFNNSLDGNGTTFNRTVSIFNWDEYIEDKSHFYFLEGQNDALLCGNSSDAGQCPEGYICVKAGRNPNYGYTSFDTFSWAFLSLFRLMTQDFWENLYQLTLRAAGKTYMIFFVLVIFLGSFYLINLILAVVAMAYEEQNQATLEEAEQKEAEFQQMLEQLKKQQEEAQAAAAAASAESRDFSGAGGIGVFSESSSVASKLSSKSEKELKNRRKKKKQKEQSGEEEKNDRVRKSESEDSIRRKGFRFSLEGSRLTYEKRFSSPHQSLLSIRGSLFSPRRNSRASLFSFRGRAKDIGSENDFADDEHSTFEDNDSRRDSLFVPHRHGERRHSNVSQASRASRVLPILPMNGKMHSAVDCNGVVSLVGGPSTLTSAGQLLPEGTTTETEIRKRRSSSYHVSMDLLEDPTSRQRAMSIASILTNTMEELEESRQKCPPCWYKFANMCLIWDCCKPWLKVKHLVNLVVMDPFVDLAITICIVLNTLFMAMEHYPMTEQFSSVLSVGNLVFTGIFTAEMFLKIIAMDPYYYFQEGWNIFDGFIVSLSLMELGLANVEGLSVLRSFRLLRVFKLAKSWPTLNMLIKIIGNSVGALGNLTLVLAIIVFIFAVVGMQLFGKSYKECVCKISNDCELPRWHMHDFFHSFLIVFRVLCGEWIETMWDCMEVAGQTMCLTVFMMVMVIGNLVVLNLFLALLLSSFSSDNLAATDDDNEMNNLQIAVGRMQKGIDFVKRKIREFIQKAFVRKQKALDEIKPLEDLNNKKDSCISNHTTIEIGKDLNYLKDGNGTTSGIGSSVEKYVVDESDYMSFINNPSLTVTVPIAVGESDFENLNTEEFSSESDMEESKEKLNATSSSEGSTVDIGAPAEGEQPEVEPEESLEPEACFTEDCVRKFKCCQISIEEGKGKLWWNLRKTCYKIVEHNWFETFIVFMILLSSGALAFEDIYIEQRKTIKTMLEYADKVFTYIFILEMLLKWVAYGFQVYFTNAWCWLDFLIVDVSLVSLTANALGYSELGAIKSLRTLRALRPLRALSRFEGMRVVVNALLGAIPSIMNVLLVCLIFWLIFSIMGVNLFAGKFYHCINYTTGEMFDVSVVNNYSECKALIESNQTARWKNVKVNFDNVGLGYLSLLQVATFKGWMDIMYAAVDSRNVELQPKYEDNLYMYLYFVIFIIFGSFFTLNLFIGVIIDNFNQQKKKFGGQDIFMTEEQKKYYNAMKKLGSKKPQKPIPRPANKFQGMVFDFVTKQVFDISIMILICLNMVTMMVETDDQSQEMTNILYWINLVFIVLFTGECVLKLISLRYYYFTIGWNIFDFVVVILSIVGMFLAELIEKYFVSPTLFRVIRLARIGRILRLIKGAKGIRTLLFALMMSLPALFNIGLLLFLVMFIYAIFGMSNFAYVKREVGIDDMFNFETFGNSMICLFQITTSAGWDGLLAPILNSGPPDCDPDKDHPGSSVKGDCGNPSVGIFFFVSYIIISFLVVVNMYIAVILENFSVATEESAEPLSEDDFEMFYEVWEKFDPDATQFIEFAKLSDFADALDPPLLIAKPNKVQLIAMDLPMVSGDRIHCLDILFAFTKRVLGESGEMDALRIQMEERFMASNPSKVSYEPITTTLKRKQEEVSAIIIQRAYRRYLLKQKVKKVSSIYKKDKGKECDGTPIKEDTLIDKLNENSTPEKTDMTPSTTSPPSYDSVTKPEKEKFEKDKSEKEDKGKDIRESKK

| Compound | Ki [1] [µM] | Tonic seizure threshold (PTZ dose) [2] [mg/kg] | Clonic seizure threshold (PTZ dose) [3] [mg/kg] | Activity [4] |
| --- | --- | --- | --- | --- |
| O=C1c2ccccc2C(=O)N1c1ccc([N+](=O)[O-])cc1 | 65.6 | 61.6 | 41.12 | – |
| O=C1c2ccccc2C(=O)N1c1cccc([N+](=O)[O-])c1 | 21.8 | 96.84 | 64.89 | – |
| O=C1NC(=O)C(c2ccccc2)(c2ccccc2)N1 [PHENYTOIN] | – | 115 | 49.2 | inactive |
| O=C1c2ccccc2C(=O)N1c1ccccc1[N+](=O)[O-] | 134 | 65.66 | 46.34 | – |
| NS(=O)(=O)c1nnc(N2C(=O)c3ccccc3C2=O)s1 | 61.1 | 62.35 | 45.14 | – |
| O=C(O)c1ccc(N2C(=O)c3ccccc3C2=O)cc1O | 78.4 | 64.97 | 52.1 | – |

Further compounds by falling Ki [1], results first:

| Ki [1] [µM] | Compound | Tonic seizure threshold (PTZ dose) [2] [mg/kg] | Clonic seizure threshold (PTZ dose) [3] [mg/kg] | Activity [4] |
| --- | --- | --- | --- | --- |
| 338 | O=C(O)c1ccccc1N1C(=O)c2ccccc2C1=O [N-PHTHALOYLANTHRANILIC ACID] | 58.08 | 42.95 | – |
| 108 | COc1ccc(N2C(=O)c3ccccc3C2=O)c([N+](=O)[O-])c1 | 61.92 | 49.4 | – |
| 50.4 | O=C(O)c1ccc(N2C(=O)c3ccccc3C2=O)cc1 | 79.94 | 46.65 | – |
| 20.3 | COc1ccc(N2C(=O)c3ccccc3C2=O)c(N)c1 | 98.12 | 56.34 | – |
| 18.3 | CC(=O)Nc1ccc(N2C(=O)c3ccccc3C2=O)cc1 | 86.37 | 40.37 | – |
| 16 | NS(=O)(=O)c1ccc(N2C(=O)c3ccccc3C2=O)cc1 | 60.56 | 33.4 | – |
